# Tested on: angiogenesis genes in dermal microvascular endothelial cells
# Assay: Real time RT-PCR of angiogenesis gene expression during endothelial tube formation
# Assay type: cell-based
# Conditions: 1 μM SM, 24 hours
# Description: For gene expression studies, three independent experiments were run for each SM tested. 90.000 cells/well (6 wells/treatment) of dermal microvascular endothelial cells (Lonza, Walkersville, Md.) were seeded on polymerized GELTREX™ gel matrix (Invitrogen, Carlsbad, Calif.) in 24 well plates. Wells were immediately treated with the same volume of 1 μM SM or PBS. After 24 hours incubation at 37° C. and 5% CO2, cells were extracted using Cell Recovery Solution (BD Biosciences, San Jose, Calif., Cat. #354253). Total RNA was extracted with the RNeasy Mini Kit (Qiagen, Valencia, Calif., Cat. #74104), and retrotranscribed using […]® First-Strand reverse transcriptase (Invitrogen, Carlsbad, Calif., Cat. #11904-018). The real time PCR reactions were performed in an Opticon 2 cycler (MJ Research, Waltham, Mass.). Amplification was performed in a final volume of 25 μl, containing 2 μl cDNA (1:10 dilution from the reversed transcribed reaction) and 2 μl of primer mixture (10 μM each of forward and reverse primers). Samples were amplified as follows: after initial denaturation at 95 C for 2 minutes, reactions were run for 46 cycles at 95° C. for 30 seconds, 60° C. for 30 seconds, and 72° C. for 45 seconds. Fluorescence was measured in every cycle and a melting curve was run after the PCR by increasing temperature from 50 to 96° C. (in 0.5° C. increments). A defined single peak was obtained for all amplicons, thus confirming the specificity of the amplification.
# The genes that were monitored were selected based on their relevance to the angiogenesis process. All experiments were done in triplicate. The results are shown in the volcano plots of FIG. 17. Log 2 fold-change is presented in the X-axis and log 10 P value in the Y-axis.
compound,measurement,setting,value
COC(=O)C1CC(=O)C(C(=O)OC)CC1=O (centres unmarked) [Compound 122567],Log2 fold-change of gene expression: 1839,,1.0
same,Log2 fold-change of gene expression: 4247,,0.3
same,Log2 fold-change of gene expression: 5569,,0.8
same,Log2 fold-change of gene expression: 8131,,0.1
same,Log2 fold-change of gene expression: 9569,,−2.2
same,Log2 fold-change of gene expression: 10988,,1.2
same,Log2 fold-change of gene expression: 23001,,−0.5
same,Log2 fold-change of gene expression: 55332,,−1.0
same,Log2 fold-change of gene expression: 57722,,0.1
same,Log2 fold-change of gene expression: 58488,,1.5
same,Log2 fold-change of gene expression: 90780,,−1.9
same,Log2 fold-change of gene expression: 134265,,−0.2
same,Log2 fold-change of gene expression: AKT1,,−1.6
same,Log2 fold-change of gene expression: ANGPT1,,1.6
same,Log2 fold-change of gene expression: ANGPT2,,−0.9
same,Log2 fold-change of gene expression: ANGPTL3,,−1.7
same,Log2 fold-change of gene expression: ANGPTL4,,−0.4
same,Log2 fold-change of gene expression: ANPEP,,−1.2
same,Log2 fold-change of gene expression: ANTXR1,,−3.5
same,Log2 fold-change of gene expression: APOE,,0.8
same,Log2 fold-change of gene expression: ARHGEF1,,−5.0
same,Log2 fold-change of gene expression: Acvrl1,,−1.3
same,Log2 fold-change of gene expression: Adcy4,,−0.4
same,Log2 fold-change of gene expression: BAL1,,0.2
same,Log2 fold-change of gene expression: BMP1,,0.9
same,Log2 fold-change of gene expression: C1orf54,,−3.4
same,Log2 fold-change of gene expression: CALD1,,2.3
same,Log2 fold-change of gene expression: CCL2,,2.5
same,Log2 fold-change of gene expression: CCL11,,0.6
same,Log2 fold-change of gene expression: CD248,,1.2
same,Log2 fold-change of gene expression: CDH5,,−1.9
same,Log2 fold-change of gene expression: CENTD3,,1.1
same,Log2 fold-change of gene expression: CLIC1,,0.9
same,Log2 fold-change of gene expression: COL4A3,,1.9
same,Log2 fold-change of gene expression: COL18A1,,1.6
same,Log2 fold-change of gene expression: COMT,,−1.5
same,Log2 fold-change of gene expression: CST4,,1.3
same,Log2 fold-change of gene expression: CTTNBP2NL,,−0.9
same,Log2 fold-change of gene expression: CXCL3,,4.0
same,Log2 fold-change of gene expression: CXCL5,,4.3
same,Log2 fold-change of gene expression: CXCL6,,1.1
same,Log2 fold-change of gene expression: CXCL9,,1.6
same,Log2 fold-change of gene expression: CXCL10,,3.7
same,Log2 fold-change of gene expression: Calcr1,,−4.0
same,Log2 fold-change of gene expression: Caskin2,,−2.3
same,Log2 fold-change of gene expression: Ccbp2,,1.4
same,Log2 fold-change of gene expression: Cldn5,,0.0
same,Log2 fold-change of gene expression: DGKG,,2.0
same,Log2 fold-change of gene expression: DKK3,,−1.9
same,Log2 fold-change of gene expression: DLL4,,−8.7
same,Log2 fold-change of gene expression: DUT,,−1.8
same,Log2 fold-change of gene expression: EFNA1,,−0.3
same,Log2 fold-change of gene expression: EFNA3,,−0.4
same,Log2 fold-change of gene expression: EFNB2,,−4.0
same,Log2 fold-change of gene expression: EGF,,−0.3
same,Log2 fold-change of gene expression: ENG,,−1.7
same,Log2 fold-change of gene expression: EPHB4,,−0.5
same,Log2 fold-change of gene expression: EREG,,1.9
same,Log2 fold-change of gene expression: ESAM1,,−2.9
same,Log2 fold-change of gene expression: EXTL3,,0.3
same,Log2 fold-change of gene expression: Egf17,,−2.6
same,Log2 fold-change of gene expression: Ehd4,,−0.8
same,Log2 fold-change of gene expression: Entpd1,,−0.3
same,Log2 fold-change of gene expression: Epas1,,0.9
same,Log2 fold-change of gene expression: EphB1,,0.8
same,Log2 fold-change of gene expression: Erg,,2.4
same,Log2 fold-change of gene expression: FGF1,,1.9
same,Log2 fold-change of gene expression: FGF2,,−0.7
same,Log2 fold-change of gene expression: FGFR3,,1.2
same,Log2 fold-change of gene expression: FIGF,,−0.1
same,Log2 fold-change of gene expression: FLT1,,−4.4
same,Log2 fold-change of gene expression: Fgd5,,−1.5
same,Log2 fold-change of gene expression: GPCR124,,−3.7
same,Log2 fold-change of gene expression: GRRP1,,−0.3
same,Log2 fold-change of gene expression: Grp116,,−2.3
same,Log2 fold-change of gene expression: HAND2,,0.4
same,Log2 fold-change of gene expression: HGF,,1.3
same,Log2 fold-change of gene expression: HIF1A,,−3.1
same,Log2 fold-change of gene expression: HPSE,,−8.3
same,Log2 fold-change of gene expression: Hspa12b,,−3.4
same,Log2 fold-change of gene expression: ID1,,−0.2
same,Log2 fold-change of gene expression: ID3,,−0.3
same,Log2 fold-change of gene expression: IFNA1,,1.1
same,Log2 fold-change of gene expression: IFNB1,,1.2
same,Log2 fold-change of gene expression: IFNG,,8.3
same,Log2 fold-change of gene expression: IGF1,,−0.1
same,Log2 fold-change of gene expression: IL1B,,−0.1
same,Log2 fold-change of gene expression: IL6,,14.4
same,Log2 fold-change of gene expression: IL8,,7.4
same,Log2 fold-change of gene expression: ITGAV,,−2.7
same,Log2 fold-change of gene expression: ITGB3,,−1.4
same,Log2 fold-change of gene expression: Icam1,,0.0
same,Log2 fold-change of gene expression: Icam2,,0.1
same,Log2 fold-change of gene expression: JAG1,,0.6
same,Log2 fold-change of gene expression: KDR,,−2.3
same,Log2 fold-change of gene expression: Kifc1,,1.1
same,Log2 fold-change of gene expression: LAMAS5,,−1.1
same,Log2 fold-change of gene expression: LECT1,,0.3
same,Log2 fold-change of gene expression: LEP,,0.2
same,Log2 fold-change of gene expression: Lasts2,,4.8
same,Log2 fold-change of gene expression: Lrrk1,,−0.5
same,Log2 fold-change of gene expression: MDK,,−0.9
same,Log2 fold-change of gene expression: MMP2,,0.3
same,Log2 fold-change of gene expression: MMP9,,0.9
same,Log2 fold-change of gene expression: MMP11,,1.3
same,Log2 fold-change of gene expression: MRC2,,0.7
same,Log2 fold-change of gene expression: Mmm2,,−3.5
same,Log2 fold-change of gene expression: Myo1b,,−2.9
same,Log2 fold-change of gene expression: NID1,,−6.3
same,Log2 fold-change of gene expression: NM023516,,0.2
same,Log2 fold-change of gene expression: NRP1,,−3.0
same,Log2 fold-change of gene expression: NRP2,,−4.3
same,Log2 fold-change of gene expression: Notch4,,−1.1
same,Log2 fold-change of gene expression: Npr3,,1.5
same,Log2 fold-change of gene expression: PALD,,−0.5
same,Log2 fold-change of gene expression: PDCD2,,−0.4
same,Log2 fold-change of gene expression: PDGFA,,−1.7
same,Log2 fold-change of gene expression: PECAM1,,−2.7
same,Log2 fold-change of gene expression: PGF,,−4.9
same,Log2 fold-change of gene expression: PLAU,,−0.1
same,Log2 fold-change of gene expression: PLG,,−1.5
same,Log2 fold-change of gene expression: PNMT,,1.1
same,Log2 fold-change of gene expression: PROK2,,1.3
same,Log2 fold-change of gene expression: PTGS1,,0.8
same,Log2 fold-change of gene expression: PTPRCAP,,0.0
same,Log2 fold-change of gene expression: Pltp,,1.5
same,Log2 fold-change of gene expression: Ptprb,,0.5
same,Log2 fold-change of gene expression: Ptprm,,−0.4
same,Log2 fold-change of gene expression: RAMP2,,−5.8
same,Log2 fold-change of gene expression: RASD2,,0.5
same,Log2 fold-change of gene expression: Rasip1,,−1.2
same,Log2 fold-change of gene expression: S1PR1,,−0.7
same,Log2 fold-change of gene expression: SERPINF1,,0.2
same,Log2 fold-change of gene expression: SPHK1,,0.9
same,Log2 fold-change of gene expression: STAB1,,−1.7
same,Log2 fold-change of gene expression: Sdc4,,0.4
same,Log2 fold-change of gene expression: Sdpr,,1.6
same,Log2 fold-change of gene expression: Slc43a3,,1.8
same,Log2 fold-change of gene expression: Slco2a1,,−0.6
same,Log2 fold-change of gene expression: TEK,,0.3
same,Log2 fold-change of gene expression: TGFA,,2.0
same,Log2 fold-change of gene expression: TGFB1,,−1.2
same,Log2 fold-change of gene expression: TGFB2,,1.2
same,Log2 fold-change of gene expression: TGFBR1,,1.2
same,Log2 fold-change of gene expression: THBS1,,0.1
same,Log2 fold-change of gene expression: THBS2,,1.2
same,Log2 fold-change of gene expression: THY1,,−9.4
same,Log2 fold-change of gene expression: TIMP1,,−1.4
same,Log2 fold-change of gene expression: TIMP2,,−1.4
same,Log2 fold-change of gene expression: TIMP3,,−4.3
same,Log2 fold-change of gene expression: TNF,,−0.2
same,Log2 fold-change of gene expression: TNS1,,0.0
same,Log2 fold-change of gene expression: TNS3,,2.0
same,Log2 fold-change of gene expression: TRA2B,,−1.6
same,Log2 fold-change of gene expression: TYMP,,−0.3
same,Log2 fold-change of gene expression: VEGFA,,4.9
same,Log2 fold-change of gene expression: VEGFC,,1.8
same,Log2 fold-change of gene expression: VGLL4,,−3.5
same,Log2 fold-change of gene expression: Vwf,,−3.5
same,Log2 fold-change of gene expression: copa,,0.1
same,Log2 fold-change of gene expression: itbp4,,−1.9
same,Log2 fold-change of gene expression: ralb,,0.3
same,Log2 fold-change of gene expression: stard9,,0.5
same,Log2 fold-change of gene expression: B2M,1st listing (r49),0.1
same,Log2 fold-change of gene expression: HPRT1,1st listing (r50),0.0
same,Log2 fold-change of gene expression: RPL13A,1st listing (r51),0.7
same,Log2 fold-change of gene expression: GADPH,1st listing (r52),−0.7
same,Log2 fold-change of gene expression: ACTB,1st listing (r53),−1.0
same,Log2 fold-change of gene expression: PLXDC1,1st listing (r74),0.7
same,Log2 fold-change of gene expression: TNFAIP2,1st listing (r91),−1.0
same,Log2 fold-change of gene expression: Robo4,1st listing (r95),0.0
same,Log2 fold-change of gene expression: 151516,1st listing (r134),1.1
same,Log2 fold-change of gene expression: TNFAIP2,2nd listing (r92),−1.1
same,Log2 fold-change of gene expression: B2M,2nd listing (r97),−0.2
same,Log2 fold-change of gene expression: HPRT1,2nd listing (r98),0.0
same,Log2 fold-change of gene expression: RPL13A,2nd listing (r99),1.2
same,Log2 fold-change of gene expression: GADPH,2nd listing (r100),−0.8
same,Log2 fold-change of gene expression: ACTB,2nd listing (r101),−1.0
same,Log2 fold-change of gene expression: PLXDC1,2nd listing (r104),−1.7
same,Log2 fold-change of gene expression: 151516,2nd listing (r139),1.3
same,Log2 fold-change of gene expression: Robo4,2nd listing (r188),1.2
same,Log2 fold-change of gene expression: B2M,3rd listing (r145),−0.2
same,Log2 fold-change of gene expression: HPRT1,3rd listing (r146),−0.6
same,Log2 fold-change of gene expression: RPL13A,3rd listing (r147),0.9
same,Log2 fold-change of gene expression: GADPH,3rd listing (r148),−0.7
same,Log2 fold-change of gene expression: ACTB,3rd listing (r149),−0.5
same,Log2 fold-change of gene expression: B2M,4th listing (r193),0.3
same,Log2 fold-change of gene expression: HPRT1,4th listing (r194),−0.2
same,Log2 fold-change of gene expression: RPL13A,4th listing (r195),1.3
same,Log2 fold-change of gene expression: GADPH,4th listing (r196),−2.0
same,Log2 fold-change of gene expression: ACTB,4th listing (r197),−0.1
